Data taken from patent US4605744A, “Imidazole derivatives” (Hoffmann-La Roche Inc., priority 1985, dated 1986).
Structures can show the parent of a compound that is named as a salt. Where two headings read alike, the source gives them in different places.

Assays:
Type in all cases: cell-based
E. coli 257 = test: In vitro antibacterial activity (MIC, Mueller-Hinton broth)
Procedure: Drug dilutions are prepared in Mueller-Hinton broth ranging from 128 to 0.008 μg/ml. The diluted agents are dispensed in 100 μl amounts into the wells of a 96-well tray and used immediately or frozen at -10° to -70° C. until needed. Using an automated inoculator, 1.5 μl of a 10^-2 dilution of an overnight culture is added to each well of the tray. The tops of the trays are then sealed using transparent tape and incubated overnight at 37° C. The trays are examined with the aid of a viewer. The lowest concentration at which no growth is observed is considered to be the minimum inhibitory concentration (MIC).

E. aerogenes 83 = test: In vitro antibacterial activity (MIC)
Procedure, shortened: (§1)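 Read-out: visible growth, checked with a viewer after overnight incubation at 37° C. Bacteria, from a 10^-2 dilution of an overnight culture, were exposed to drug at 128 to 0.008 μg/ml in Mueller-Hinton broth.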

E. cloacae 9295 = test: In vitro antibacterial activity (MIC)
Procedure, shortened: as §1

E. coli 387-1 = test: In vitro antibacterial activity (MIC)
Procedure, shortened: as §1

K. pneumoniae 35 = test: In vitro antibacterial activity (MIC)
Procedure, shortened: as §1

K. pneumoniae 503-964 = test: In vitro antibacterial activity (MIC)
Procedure, shortened: as §1

K. pneumoniae 8357 = test: In vitro antibacterial activity (MIC)
Procedure, shortened: as §1

K. pneumoniae HE7 = test: In vitro antibacterial activity (MIC); conditions: Klebsiella pneumoniae; K. pneumoniae HE7; read-out: MIC
Procedure, shortened: as §1

P. aeruginosa 8710 = test: In vitro antibacterial activity (MIC); conditions: Pseudomonas aeruginosa; P. aeruginosa 8710; read-out: MIC
Procedure, shortened: as §1

P. aeruginosa Stone 130 = test: In vitro antibacterial activity (MIC); conditions: Pseudomonas aeruginosa, STONE130, read-out: MIC
Procedure, shortened: as §1

P. mirabilis 190 = test: In vitro antibacterial activity (MIC); conditions: Proteus mirabilis, 190, P. mirabilis 190; read-out: MIC
Procedure, shortened: as §1

P. rettgeri ATCC 9250 = test: In vitro antibacterial activity (MIC); conditions: Providencia rettgeri, ATCC9250, P. rettgeri ATCC 9250; read-out: MIC
Procedure, shortened: as §1

S. aureus Giorgio = test: In vitro antibacterial activity (MIC); conditions: Staphylococcus aureus
Procedure, shortened: as §1

S. marcescens 5805 = test: In vitro antibacterial activity (MIC); conditions: Serratia marcescens, 5805, S. marcescens 5805; read-out: MIC
Procedure, shortened: as §1

S. marcescens S147 = test: In vitro antibacterial activity (MIC); conditions: Serratia marcescens; S. marcescens S147; read-out: MIC
Procedure, shortened: as §1

S. marcescens S3 = test: In vitro antibacterial activity (MIC); conditions: Serratia marcescens; S. marcescens S3; read-out: MIC
Procedure, shortened: as §1

S. marcescens S714 = test: In vitro antibacterial activity (MIC); conditions: Serratia marcescens
Procedure, shortened: as §1

S. marcescens SM = test: In vitro antibacterial activity (MIC); conditions: Serratia marcescens, read-out: MIC
Procedure, shortened: as §1

S. typhi P58A = test: In vitro antibacterial activity (MIC); conditions: Salmonella enterica, TYPHI
Procedure, shortened: as §1

P. aeruginosa 5700 = test: In vitro antibacterial activity (MIC); conditions: Pseudomonas aeruginosa, 5700, P. aeruginosa 5700; read-out: MIC
Procedure, shortened: as §1

P. aeruginosa B = test: In vitro antibacterial activity (MIC); conditions: Pseudomonas aeruginosa, read-out: MIC
Procedure, shortened: as §1

S. faecalis C1 = test: In vitro antibacterial activity (MIC); conditions: Enterococcus faecalis; S. faecalis C1; read-out: MIC
Procedure, shortened: as §1

S. pyogenes 4 = test: In vitro antibacterial activity (MIC); conditions: Streptococcus pyogenes, 4, S. pyogenes 4; read-out: MIC
Procedure, shortened: as §1

[1] = Escherichia coli, 257, E. coli 257, read-out: MIC
[2] = Klebsiella aerogenes, 83, E. aerogenes 83, read-out: MIC
[3] = Enterobacter cloacae, 9295, E. cloacae 9295, read-out: MIC
[4] = Escherichia coli, 3871, E. coli 387-1, read-out: MIC
[5] = Klebsiella pneumoniae, K. pneumoniae 35, read-out: MIC
[6] = Klebsiella pneumoniae, 503964, K. pneumoniae 503-964, read-out: MIC
[7] = Klebsiella pneumoniae, 8357, K. pneumoniae 8357, read-out: MIC
[8] = S. aureus Giorgio, read-out: MIC
[9] = S714, S. marcescens S714, read-out: MIC

## CC1(C)S[C@@H]2[C@H](N=CN3CCC(Cc4ncc[nH]4)CC3)C(=O)N2[C@H]1C(=O)O [Q, [2S-(2alpha,5alpha,6beta)]-6-[[[4-(1H-imidazol-2-yl-methyl)-1-piperidinyl]methylene]amino]-3,3-dimethyl-7-oxo-4-thia-1-azabicyclo[3.2.0]heptane-2-carboxylic acid hydrochloride]
E. coli 257; [1]
  MIC: 0.062 µg/mL
E. aerogenes 83; [2]
  MIC: 4 µg/mL
E. cloacae 9295; [3]
  MIC: 4 µg/mL
E. coli 387-1; [4]
  MIC: 0.062 µg/mL
K. pneumoniae 35; [5]
  MIC: 0.25 µg/mL
K. pneumoniae 503-964; [6]
  MIC: 0.5 µg/mL
K. pneumoniae 8357; [7]
  MIC: 4 µg/mL
K. pneumoniae HE7
  MIC: > 128 µg/mL
P. aeruginosa 8710
  MIC: 128 µg/mL
P. aeruginosa Stone 130
  MIC: > 128 µg/mL
P. mirabilis 190
  MIC: 0.25 µg/mL
P. rettgeri ATCC 9250
  MIC: 16 µg/mL
S. aureus Giorgio; [8]
  MIC: 8 µg/mL
S. marcescens 5805
  MIC: 1 µg/mL
S. marcescens S147
  MIC: 0.125 µg/mL
S. marcescens S3
  MIC: 0.125 µg/mL
S. marcescens S714; [9]
  MIC: 0.25 µg/mL
S. marcescens SM
  MIC: 0.125 µg/mL
S. typhi P58A
  MIC: 8 µg/mL

## CC1(C)S[C@@H]2[C@H](N=CN3CCC(CCn4ccnc4)CC3)C(=O)N2[C@H]1C(=O)O [B, [2S-2alpha,5alpha,6beta)]-6-[[[4-[2-(1H-imidazol-1-yl)ethyl]-1-piperidinyl]methylene]amino]-3,3-dimethyl-7-oxo-4-thia-1-azabicyclo[3.2.0]heptane-2-carboxylic acid hydrate hydrochloride]
E. coli 257; Escherichia coli, 257
  MIC: 0.25 µg/mL
E. aerogenes 83; [2]
  MIC: 0.5 µg/mL
E. cloacae 9295; [3]
  MIC: 0.5 µg/mL
E. coli 387-1; [4]
  MIC: 8 µg/mL
K. pneumoniae 35; [5]
  MIC: 1 µg/mL
K. pneumoniae 503-964; [6]
  MIC: 0.25 µg/mL
K. pneumoniae 8357; [7]
  MIC: 0.25 µg/mL
K. pneumoniae HE7
  MIC: > 128 µg/mL
P. aeruginosa 5700
  MIC: > 128 µg/mL
P. aeruginosa 8710
  MIC: > 128 µg/mL
P. aeruginosa B
  MIC: > 128 µg/mL
P. mirabilis 190
  MIC: 0.5 µg/mL
P. rettgeri ATCC 9250
  MIC: 0.5 µg/mL
S. aureus Giorgio
  MIC: 32 µg/mL
S. faecalis C1
  MIC: > 128 µg/mL
S. marcescens 5805
  MIC: 1 µg/mL
S. marcescens S147
  MIC: 0.5 µg/mL
S. marcescens S3
  MIC: 0.5 µg/mL
S. marcescens S714; [9]
  MIC: 1 µg/mL
S. marcescens SM
  MIC: 0.25 µg/mL
S. typhi P58A
  MIC: 0.062 µg/mL

## CC1(C)S[C@@H]2[C@H](N=CN3CCC(Cn4ccnc4N)CC3)C(=O)N2[C@H]1C(=O)O [H, [2S-(2alpha,5alpha,6beta)]-6-[[[4-[(2-amino-1H-imidazol-1-yl)methyl-1-piperidinyl]methylene]amino]-3,3-dimethyl-7-oxo-4-thia-1-azabicyclo[3.2.0]heptane-2-carboxylic acid hydrochloride]
E. coli 257; Escherichia coli, 257
  MIC: 0.25 µg/mL
E. aerogenes 83; Klebsiella aerogenes, 83
  MIC: 16 µg/mL
E. cloacae 9295; Enterobacter cloacae, 9295
  MIC: 0.5 µg/mL
E. coli 387-1; [4]
  MIC: 0.125 µg/mL
K. pneumoniae 35; [5]
  MIC: 0.25 µg/mL
K. pneumoniae 503-964; [6]
  MIC: 0.125 µg/mL
K. pneumoniae 8357; [7]
  MIC: 0.125 µg/mL
K. pneumoniae HE7
  MIC: 128 µg/mL
P. aeruginosa 5700
  MIC: 0.125 µg/mL
P. aeruginosa 8710
  MIC: 128 µg/mL
P. aeruginosa B
  MIC: 0.5 µg/mL
P. aeruginosa Stone 130
  MIC: > 128 µg/mL
P. mirabilis 190
  MIC: 0.125 µg/mL
P. rettgeri ATCC 9250
  MIC: 0.25 µg/mL
S. faecalis C1
  MIC: 64 µg/mL
S. marcescens 5805
  MIC: 0.5 µg/mL
S. marcescens S147
  MIC: 0.031 µg/mL
S. marcescens S3
  MIC: 0.125 µg/mL
S. marcescens S714; [9]
  MIC: 0.25 µg/mL
S. marcescens SM
  MIC: 0.125 µg/mL
S. pyogenes 4
  MIC: 1 µg/mL
S. typhi P58A
  MIC: 0.062 µg/mL

## CC1(C)S[C@@H]2[C@H](N=CN3CCC(c4ncc[nH]4)CC3)C(=O)N2[C@H]1C(=O)O [O, [2S-(2alpha,5alpha,6beta)]-6-[[[4-(1H-imidazol-2-yl-1-piperidinyl]methylene]amino]-3,3-dimethyl-7-oxo-4-thia-1-azabicyclo[3.2.0]heptane-2-carboxylic acid hydrochloride trihydrate]
E. coli 257; Escherichia coli, 257
  MIC: 0.125 µg/mL
E. aerogenes 83; [2]
  MIC: 8 µg/mL
E. cloacae 9295; [3]
  MIC: 1 µg/mL
E. coli 387-1; Escherichia coli, 3871
  MIC: 0.125 µg/mL
K. pneumoniae 35; [5]
  MIC: 1 µg/mL
K. pneumoniae 503-964; [6]
  MIC: 0.5 µg/mL
K. pneumoniae 8357; [7]
  MIC: 0.5 µg/mL
K. pneumoniae HE7
  MIC: > 128 µg/mL
P. aeruginosa 5700
  MIC: 0.5 µg/mL
P. aeruginosa 8710
  MIC: > 128 µg/mL
P. aeruginosa B
  MIC: 0.5 µg/mL
P. aeruginosa Stone 130
  MIC: > 128 µg/mL
P. mirabilis 190
  MIC: 0.5 µg/mL
P. rettgeri ATCC 9250
  MIC: 0.5 µg/mL
S. faecalis C1
  MIC: 32 µg/mL
S. marcescens 5805
  MIC: 8 µg/mL
S. marcescens S147
  MIC: 0.25 µg/mL
S. marcescens S3
  MIC: 0.25 µg/mL
S. marcescens S714; [9]
  MIC: 1 µg/mL
S. marcescens SM
  MIC: 0.5 µg/mL
S. pyogenes 4
  MIC: 0.5 µg/mL
S. typhi P58A
  MIC: 0.125 µg/mL

## Cc1nccn1CCCC1CCN(C=N[C@@H]2C(=O)N3[C@@H]2SC(C)(C)[C@@H]3C(=O)O)CC1 [F, [2S-(2alpha,5alpha,6beta)]-3,3-dimethyl-6-[[[4-[3-(2-methyl-1H-imidazol-1-yl)propyl]-1-piperidinyl]methylene]amino]-7-oxo-4-thia-1-azabicyclo[3.2.0]heptane-2-carboxylic acid 1.15 molar hydrochloride 1.75 molar hydrate]
E. coli 257; [1]
  MIC: 0.125 µg/mL
E. aerogenes 83; Klebsiella aerogenes, 83
  MIC: 16 µg/mL
E. cloacae 9295; [3]
  MIC: 0.25 µg/mL
E. coli 387-1; [4]
  MIC: 0.125 µg/mL
K. pneumoniae 35; [5]
  MIC: 0.125 µg/mL
K. pneumoniae 503-964; Klebsiella pneumoniae, 503964, K. pneumoniae 503-964
  MIC: 4 µg/mL
K. pneumoniae 8357; Klebsiella pneumoniae, 8357
  MIC: 1 µg/mL
K. pneumoniae HE7
  MIC: > 128 µg/mL
P. aeruginosa 5700
  MIC: 0.5 µg/mL
P. aeruginosa 8710
  MIC: > 128 µg/mL
P. aeruginosa B
  MIC: 0.25 µg/mL
P. aeruginosa Stone 130
  MIC: > 128 µg/mL
P. mirabilis 190
  MIC: 0.25 µg/mL
P. rettgeri ATCC 9250
  MIC: 0.25 µg/mL
S. faecalis C1
  MIC: 128 µg/mL
S. marcescens 5805
  MIC: 0.5 µg/mL
S. marcescens S147
  MIC: 0.25 µg/mL
S. marcescens S3
  MIC: 0.25 µg/mL
S. marcescens S714; [9]
  MIC: 1 µg/mL
S. marcescens SM
  MIC: 0.125 µg/mL
S. pyogenes 4
  MIC: 0.5 µg/mL
S. typhi P58A
  MIC: 0.062 µg/mL

## CC1(C)S[C@@H]2[C@H](N=CN3CCCC(c4ncc[nH]4)C3)C(=O)N2[C@H]1C(=O)O (stereo partly drawn) [P, [2S-(2alpha,5alpha,6beta)]-6-[[[3-(1H-imidazol-2-yl)-1-piperidinyl]methylene]amino]-3,3-dimethyl-7-oxo-4-thia-1-azabicyclo[3.2.0]heptane-2-carboxylicacid hydrochloride]
E. coli 257; Escherichia coli, 257
  MIC: 2 µg/mL
E. aerogenes 83; [2]
  MIC: 8 µg/mL
E. cloacae 9295; [3]
  MIC: 8 µg/mL
E. coli 387-1; Escherichia coli, 3871
  MIC: 4 µg/mL
K. pneumoniae 35; Klebsiella pneumoniae, 35, K. pneumoniae 35
  MIC: 16 µg/mL
K. pneumoniae 503-964; [6]
  MIC: 8 µg/mL
K. pneumoniae 8357; [7]
  MIC: 8 µg/mL
K. pneumoniae HE7
  MIC: 128 µg/mL
P. aeruginosa 5700
  MIC: 8 µg/mL
P. mirabilis 190
  MIC: 4 µg/mL
P. rettgeri ATCC 9250
  MIC: 4 µg/mL
S. aureus Giorgio; [8]
  MIC: 4 µg/mL
S. marcescens 5805
  MIC: 128 µg/mL
S. marcescens S147
  MIC: 8 µg/mL
S. marcescens S3
  MIC: 8 µg/mL
S. marcescens S714; S714
  MIC: 32 µg/mL
S. marcescens SM
  MIC: 8 µg/mL
S. typhi P58A
  MIC: 2 µg/mL
